Data on 13 molecules can be found in US5767298A, “Aminophospholipid compositions and uses thereof” (Indiana University Foundation, priority 1996, dated 1998).

Data set [1] has as its system human erythrocytes. The experiment in a line: Back extraction of dilauroyl phospholipids from human erythrocytes with DOPC vesicles. Type of data set: cell-based. On the procedure:
(§1) Timecourse of erythrocyte shape change (MI) induced by suspensions of C-DLPS (200 μM, open circles, open triangles) and DLPC (200 μM, open squares) in HBS. After 15 min (arrow), one sample of cells (open circles) was centrifuged, resuspended in citrate buffer (100 mM, pH 5.5) and re-incubated at 37° C. At 15 or 75 min, aliquots of each sample were removed and treated with DOPC vesicles (20 mM, 5% HCT) for 15 min at 37° C. (closed symbols). At the indicated times aliquots were fixed with glutaraldehyde and analyzed by light microscopy.
Back extraction of dilauroyl phospholipids from human erythrocytes. Washed red blood cells were incubated with DLPS, DLPC, or C-DLPS (200 μM) in HBS at 50% HCT for 90 min at 37° C. After 15 min, an aliquot of the cells was removed and the short chain phospholipids in the outer monolayer were back extracted with sonicated DOPC vesicles (20 mM) in HBS at 5% HCT for 15 min at 37° C. A separate aliquot of C-DLPS-treated cells was removed at 15 min, centrifuged, resuspended in citrate buffer (pH 5.5), and reincubated at 37° C. After 60 min, an aliquot from the cells incubated at low pH was removed and the short chain phospholipids remaining in the outer monolayer were back extracted with DOPC. Two additional control experiments were performed: 1] DLPC (200 μM) was incorporated into cells as described above for 15 min and then back extracted with DOPC vesicles, and 2] cells without exogenously added lipid were incubated with DOPC vesicles under the conditions of the back extraction assay. In each of the forgoing experiments aliquots were removed at the prescribed time points and the morphological index was determined by light microscopy.

The nature of data set [2]: pH-dependent cleavage of caged aminophospholipids (MLVs, 1 h, 37° C., phosphate analysis of TLC-separated lipids). Type of data set: physicochemical. The settings on record: for pH of half-maximal cleavage: 1 h at 37° C.; for cleavage at any pH: pH 3-8, 1 h, 37° C.; for cleavage at pH 3: after extended incubation at pH 3; for significant cleavage at physiologically desirable pH: pH 5.5-8, 37° C. As for the experimental part: Derivatized aminophospholipids (C-DOPS (open circles), C-DOPE (filled circles), M-DOPE (open squares), D-DOPE (filled squares), T-DOPE (open triangles), and P-DOPE (filled triangles), 0.5 mM each) were suspended in citrate (pH 3, 4.5, and 6) or Hepes (pH 7 and 8) buffer and incubated for 1 h at 37° C.
pH-Dependent cleavage measurements. A chloroform solution of the "caged" aminophospholipid (0.1 μmol) being tested was dried under nitrogen and the lipid was resuspended in buffers (200 μL) of varying pH; pH 3 (50 mM citrate), pH 4.5 (50 mM citrate), pH 6 (50 mM citrate), pH 7 (50 mM Hepes), and pH 8 (50 mM Hepes), adjusted to physiological ionic strength (290-310 mOsM) with NaCl. Solutions were vortexed briefly to make multilamellar vesicles (MLVs) and placed in a shaking water bath for 1 h at 37° C. The reaction was quenched after 1 h with a Hepes buffer (0.5M, pH 8.0). The lipid was extracted and the aqueous phase washed twice with chloroform. The derivative was separated from DOPE or DOPS by normal phase silica TLC eluted with CHCl3:CH3OH:NH4OH:H2O (65:25:2.5:2.5). The fraction cleaved was determined by phosphate analysis of the corresponding iodine stained spots. A background measurement, not incubated at 37° C. for 1 h, but subjected to the same extraction and TLC procedures, was performed to correct for hydrolysis that occurred during workup. All measurements were completed in triplicate.
The pH dependence of cleavage of the DOPS and DOPE derivatives was determined by incubating lipid dispersions (MLVs) in buffers of varying pH for 1 h at 37° C. Hydrolysis was measured by phosphate analysis of TLC-separated products.

The conditions of data set [3]: for time constant tau1 (initial fast component) / time constant tau2 (slow component): biexponential fit; for half-time for cleavage: citrate buffer, pH 5.5.
Experimental: The extent of cleavage was determined by phosphate analysis of thin layer chromatographic separations of extracted lipids. The solid lines are non-linear least squares fits of the data to a double exponential equation (f(x)=α1*exp(-x/.tau.1)+α2*exp(-x/.tau.2)).
C-DOPE (0.5 mM, column 1) and C-DOPS (0.5 mM, columns 2-5) were suspended in citrate buffer, pH 5.5 (columns 1 and 2) containing Triton X-100 (0.1%, column 3), NaCl (1M, column 4) or egg PC (2.5 mM, column 5) and incubated for 1 h at 37° C. The extent of cleavage was quantitated by phosphate determination of thin layer chromatographic separations of extracted lipids. Kinetic parameters were determined by non-linear least squares fits of the data to a double exponential equation (see FIG. 2): A. Exponential coefficients α1 (open bars) and α2 (filled bars) B. Time constants .tau.1 (open bars) and .tau.2 (filled bars).
Chloroform solutions of C-DOPS or C-DOPE (0.1 μmol) were dried under nitrogen and resuspended in 200 μL of citrate buffer (50 mM, pH 5.5). MLVs were prepared as described above and placed in a shaking water bath at 37° C. At prescribed time points, the reaction was quenched with 50 μL of Hepes buffer (1M, pH 8.5), the lipid was extracted, and the amount of cleavage was determined by phosphate analysis of TLC-separated lipids.
In one set of experiments, the ionic strength of the citrate incubation buffer (pH 5.5) was raised by including 1M NaCl and cleavage was measured as described above. In a second set of experiments, C-DOPS cleavage was measured in the presence of Triton X-100 (0.1%). In a third set of experiments, a five fold excess of DOPC was add to the lipid suspensions to dilute the surface charge. In a fourth set of experiments, ethanol (0.05-0.5%), DTT (5 mM), aniline (1.5 mM), p-nitroaniline (1.5 mM), and DOPE (2.5 mM) were added in separate experiments to the incubation buffers as scavengers of the anhydride. The lipid products were extracted and isolated by thin-layer chromatography as described previously. A single time point at 2.5 or 3 h was analyzed. All measurements were completed in triplicate and data were fit to a biexponential equation (f(x)=α1*exp(-x/.tau.1)+α2*exp(-x/.tau.2)) using the program MacCurveFit (Kevin Raner, Mt. Waverley, Australia).
The test system of data set [4] is human erythrocytes. The experiment in a line: Erythrocyte shape change (morphological index): incorporation, uncaging and transport of lipid. The class given is cell-based. On the procedure:
(§2) A. Timecourse of erythrocyte shape change (morphological index) induced in washed human erythrocytes by C-DOPS liposomes (200 μM) incubated in HBS. At 45 min (arrow), one set of cells was centrifuged, resuspended in citrate buffer (100 mM, pH 5.5) and re-incubated at 37° C. (open circles). Aliquots were fixed with glutaraldehyde and analyzed by light microscopy. B. Low pH-induced cleavage of C-DOP^3 HS in human erythrocytes. Washed human red cells were treated with C-DOP^3 HS (55 nCi) for 45 min at 37° C. in HBS. After centrifugation, the cells were resuspended in citrate buffer (pH 5.5) and reincubated at 37° C. At the indicated timepoints, lipids were extracted from aliquots of cells, C-DOP^3 HS and DOP^3 HS were separated by thin layer chromatography, and radiolabeled lipids were quantitated by scintillation counting.
Washed human erythrocytes were incubated with sonicated suspensions of DLPS (200 μM, open circles, filled circles) or DLPC (200 μM, open squares) in citrate buffer pH 5.5 (open symbols) or in HBS (filled symbols) at 37° C. Aliquots were fixed with glutaraldehyde and analyzed by light microscopy.
as §1
Cells. Human erythrocytes were obtained from healthy adult volunteers by venipuncture and collected into EDTA (3.3 mM final concentration). Erythrocytes were pelleted by centrifugation (5 min, 3000 g), washed three times in Hepes buffered saline (HBS, 118 mM NaCl, 50 mM Hepes, 5 mM KCl, 1 mM MgSO4, 5 mM glucose, pH 8.25), and stored on ice at 50% hematocrit (HCT).
Phosphatidylserine transport assay. Previously washed erythrocytes were pelleted by centrifugation (5 min, 3000 g) and incubated at 50% HCT with sonicated DLPS, DLPC, C-DLPS, or C-DOPS vesicles (200 μM) in HBS according to the method of Daleke and Huestis (1985). At prescribed time points, the cells were fixed by adding 5 μL aliquots to 50 μL of glutaraldehyde (0.5%). Aliquots of fixed cells were examined by light microscopy for changes in cell morphology. Echinocytes were assigned scores of +1 to +5 based on the degree of […], discocytes were scored 0, and stomatocytes were given scores of -1 to -4 based on their degree of […] (Daleke & Huestis, 1989). Echinocytic shapes are indicative of cells with excess lipid in the outer monolayer, while stomatocytic shapes are indicative of cells with excess inner monolayer lipid (Sheetz & Singer, 1974). Thus, cell morphology can be used to measure the movement of exogenously added lipids from the outer to the inner monolayer. The average score of a field of 100 cells is defined as the morphological index (MI).
Hydrolysis of C-DOPS in human erythrocytes. Washed red blood cells were incubated with sonicated C-DOPS vesicles (200 μM) in HBS at 50% HCT for 45 min at 37° C. After 45 min (C-DOPS), the cells were centrifuged (16,000 g, 5 min) and the supernatant was removed. The cells were washed once with a citrate buffer (50 mM, 300 mOsM, pH 5.25) and then incubated at 20% HCT for varying lengths of time in citrate buffer. […] The final pH of the red cell suspensions in HBS was 7.58±0.02 and those suspensions in citrate buffer was 5.72±0.03 pH units. The values were corrected for temperature (37° C.). At the specified time points, an aliquot of cells was fixed and examined by light microscopy.

For data set [5] the following is noted: pH 5.5.
Experimental: In a fourth set of experiments, ethanol (0.05-0.5%), DTT (5 mM), aniline (1.5 mM), p-nitroaniline (1.5 mM), and DOPE (2.5 mM) were added in separate experiments to the incubation buffers as scavengers of the anhydride. The lipid products were extracted and isolated by thin-layer chromatography as described previously. A single time point at 2.5 or 3 h was analyzed. All measurements were completed in triplicate and data were fit to a biexponential equation (f(x)=α1*exp(-x/.tau.1)+α2*exp(-x/.tau.2)) using the program MacCurveFit (Kevin Raner, Mt. Waverley, Australia).
This hypothesis was tested by using nucleophilic scavengers to trap the released anhydride. Both water soluble (dithiothreitol, ethanol) and lipophilic (aniline, p-nitroaniline, and DOPE) scavengers were added to C-DOPS solutions and cleavage was measured at a timepoint when the slow rate of cleavage predominated (Table II).
Data set [6] relates to aminophospholipid transporter, or "flippase". The settings on record: cited from earlier work; for inhibition of flippase: Seigneuret & Devaux, 1984, Daleke & Huestis, 1985, Connor & Schroit, 1987, Bitbol et al.
For data set [7], the system named is human erythrocytes. The experiment in a line: Cleavage of C-DOP^3 HS in intact human erythrocytes (TLC, scintillation counting). The class given is cell-based. The settings on record: citrate buffer pH 5.5, 37° C. On the procedure:
as §2
Hydrolysis of C-DOPS in human erythrocytes. […]
Uncaging of the C-DOPS derivative was measured in human red blood cells in order to test the feasibility of using the compound as a probe of aminophospholipid transport in biological membranes. […] Cleavage of C-DOP^3 HS was measured directly in intact erythrocytes. […] Following exchange with citrate buffer (pH 5.5), the cells were incubated at 37° C. and hydrolysis was measured by analysis of extracted lipids separated by thin layer chromatography.

The mark [8] stands for this setting: after incorporation in HBS (15 min).
[9] abbreviates: 200 μM, citrate buffer (pH 5.5), 37° C.

Regarding `CCCCCCCCCCCC(=O)OC[C@H](COP(=O)(O)OC[C@H](NC(=O)C(C)=CC(=O)O)C(=O)O)OC(=O)CCCCCCCCCCC` [C-DLPS, N-citraconyl-dilauroylphosphatidylserine], the “cell shape after back extraction with DOPC vesicles” value in the data set with human erythrocytes [1] (15 min in HBS, then low pH for additional 60 min) is given as “reverted to stomatocytes”; with human erythrocytes [1] (setting [8]), “reverted to discocytes”. In addition, in the data set on human erythrocytes [1] (HBS), the “transbilayer location of lipid” value is reported as “remains in the outer monolayer”. In addition, the “transbilayer location of lipid (portion)” value in the data set on human erythrocytes [1] (citrate buffer (low pH)) is recorded as “accumulates in the inner monolayer”.
As for `CCCCCCCC/C=C\CCCCCCCC(=O)OC[C@H](COP(=O)(O)OCCNC(=O)/C(C)=C\C(=O)O)OC(=O)CCCCCCC/C=C\CCCCCCCC` [C-DOPE, N-citraconyl-dioleoylphosphatidylethanolamine], in data set [2], the “pH of half-maximal cleavage” value was 5.5 pH. Further, in data set [3] (citrate buffer pH 5.5, 37° C.), the “time constant tau1 (initial fast component)” value amounted to 0.9 h and the “time constant tau2 (slow component)” value is recorded as 7 h. The same molecule yielded a half-time for cleavage in data set [3] of 110 min.
For `CCCCCCCC/C=C\CCCCCCCC(=O)OC[C@H](COP(=O)(O)OC[C@H](NC(=O)/C(C)=C\C(=O)O)C(=O)O)OC(=O)CCCCCCC/C=C\CCCCCCCC` [C-DOPS, N-citraconyl-dioleoylphosphatidylserine], the “pH of half-maximal cleavage” value in data set [2] was found to be 6.5 pH. Besides, in the data set with human erythrocytes [4] (HBS, 37° C., 200 μM), the “time cells remain echinocytic” value is on record as “more than 1.5 h”. Also, the “cell shape after exchange of buffer to low pH” value in the data set with human erythrocytes [4] (Hepes buffer exchanged for citrate buffer (pH 5.5)) was “reverted to a more discoid shape”. Besides, in data set [5] (citrate buffer, 2.5 h), the “% cleavage - scavenger” value turned out to be 55.2%. Besides, in data set [5] (dithiothreitol, ethanol, aniline, p-nitroaniline, DOPE), the “effect of scavengers on slower second rate” value is reported as “None of these scavengers attenuated the slower second rate”. In addition, in data set [3] (citrate buffer pH 5.5, 37° C.), the “initial cleavage rate relative to C-DOPE” value is recorded as 6 fold, the “time constant tau1 (initial fast component)” value is reported as 0.15 h and the “time constant tau2 (slow component)” value was 4.8 h. The molecule also displayed a half-time for cleavage in data set [3] of 85 min.
As for `CCCCCCCC/C=C\CCCCCCCC(=O)OC[C@H](COP(=O)(O)OCCNC(=O)/C(C)=C(/C)C(=O)O)OC(=O)CCCCCCC/C=C\CCCCCCCC` [D-DOPE, N-dimethylmaleyl-dioleoylphosphatidylethanolamine], in data set [2], the “cleavage at any pH” value is on record as “not cleaved to any appreciable extent”.
For `CCCCCCCCCCCC(=O)OCC(COP(=O)([O-])OCC[N+](C)(C)C)OC(=O)CCCCCCCCCCC` (stereo not drawn) [DLPC, dilauroylphosphatidylcholine], in the data set with human erythrocytes [4] (setting [9]), the “time echinocytic shape is retained” value is recorded as “more than 1.5 h” and the “time to become echinocytic” value is recorded as at most 2 min. The “shape changes at higher pH compared with pH 5.5” value in the data set with human erythrocytes [4] (higher pH, data not shown) was “similar”. For the same molecule, the “cell shape after back extraction with DOPC vesicles” value in the data set with human erythrocytes [1] (setting [8]) is given as “identical results”.
With `CCCCCCCCCCCC(=O)OCC(COP(=O)(O)OCC(N)C(=O)O)OC(=O)CCCCCCCCCCC` (stereo not drawn) [DLPS, dilauroylphosphatidylserine], the erythrocyte shape change entry is given as “became echinocytic initially but rapidly reverted to stomatocytes” in the data set on human erythrocytes [4] (200 μM, HBS, 37° C.) and “became echinocytic initially but rapidly reverted to stomatocytes” with human erythrocytes [4] (setting [9]).
Consider `CCCCCCCC/C=C\CCCCCCCC(=O)OCC(COP(=O)(O)OCCNC(=O)/C=C\C(=O)O)OC(=O)CCCCCCC/C=C\CCCCCCCC` (stereo not drawn) [M-DOPE, N-maleyl-dioleoylphosphatidylethanolamine], for which, in data set [2], the “cleavage at pH 3” value stood at 25% and the “significant cleavage at physiologically desirable pH” value is on record as “did not occur”.
The matching figures for `CCCCCCCC/C=C\CCCCCCCC(=O)OCC(COP(=O)(O)OCCNC(=O)c1ccccc1C(=O)O)OC(=O)CCCCCCC/C=C\CCCCCCCC` (stereo not drawn) [P-DOPE, N-phthalyl-dioleoylphosphatidylethanolamine]: 25% and “did not occur”.
In the case of `[Ca+2]` [calcium], in data set [6], the inhibition of flippase entry is reported as “inhibited”.
`[O]=[V]([O-])([O-])[O-]` [vanadate]: the inhibition of flippase result in data set [6] was “inhibited”.
For “N-3,4,5,6-tetrahydrophthalyl-phosphatidylethanolamine [T-DOPE]”, the “cleavage at any pH” value in data set [2] is on record as “not cleaved to any appreciable extent”.
With “citraconyl-dioleoylphosphatidyl-[3-^3 H]serine [C-DOP^3 HS]”, in the data set with human erythrocytes [7], the “cleavage in erythrocytes compared with model membranes” value was “followed a similar timecourse and extent in erythrocytes as in model membranes”.
For the molecule phosphatidylserine [PS], in data set [6] (PS versus PE, Zachowski et al., 1986), the “affinity of flippase relative to PE” value is recorded as “approximately ten-fold”.
